{"source": "patent US20260048036A1", "about": "“CRYSTALLINE FORMS OF A GLUCOSYLCERAMIDE SYNTHASE INHIBITOR AND USES THEREOF” (ACELINK THERAPEUTICS, INC., priority 2022, published 2026)", "key": {"[1]": {"assay": "Water activity study (Form A + Form C slurry)", "format": "physicochemical", "conditions": "ethanol/water mixtures, a.w. 0.2-1.0, 25° C. or 50° C., XRPD of wet cake", "description": "Water activity experiments were conducted at 25° C. or 50° C. to determine critical water activity between anhydrate and hydrate. […] The mixtures were stirred at 25° C. or 50° C. for at least 2 days. The obtained solid part (wet cake) was investigated by XRPD.\nThe results of water activity study in different solvents at 25° C. and 50° C. are shown in Table 10 and Table 11, respectively. The water activity of a binary solvent system was calculated based on UNIFAC method (UNIQUAC Functional-group Activity Coefficients)."}, "[2]": {"target": "T1, Glucosylceramide synthase (GCS) (Homo sapiens, UniProt Q16739)", "T1 construct": "The MDCK, K-562, and L6 cell lines all endogenously express GCS enzyme; host or cells: K-562 human leukemia cells, live", "T1 sequence (Q16739 1-394)": "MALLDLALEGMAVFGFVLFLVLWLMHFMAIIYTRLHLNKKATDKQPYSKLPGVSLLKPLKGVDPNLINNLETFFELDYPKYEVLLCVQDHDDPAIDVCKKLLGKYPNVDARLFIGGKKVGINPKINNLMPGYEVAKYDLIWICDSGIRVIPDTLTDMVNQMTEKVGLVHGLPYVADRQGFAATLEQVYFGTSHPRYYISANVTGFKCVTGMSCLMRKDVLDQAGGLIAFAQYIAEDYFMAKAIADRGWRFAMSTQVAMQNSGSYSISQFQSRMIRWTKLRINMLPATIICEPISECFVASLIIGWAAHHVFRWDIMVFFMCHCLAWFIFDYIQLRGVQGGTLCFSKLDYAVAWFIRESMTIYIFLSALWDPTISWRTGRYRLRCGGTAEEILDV", "assay": "GCS cell-based assay with live K-562 cells", "conditions": "C6-NBD-glucosylceramide by LC-MS/MS", "from_the_text": "The reaction product, C6-NBD-glucosylceramide, could then be detected and quantified by LC-MS/MS. The inventors used this method to test and validate the effect of various GCS inhibitors on GCS enzyme activity from different species.\nThe GCS enzyme activity was detected by using the fluorescent substrate, C6-NBD-ceramide, and monitoring the formation of the fluorescent reaction product, C6-NBD-glucosylceramide. First, the inventors used cell lysate derived from a canine kidney cell line (MDCK, ATCC Cat #CCL-34™) as the source of GCS and tested the inhibitory activity of several control and test compounds.\nThe quantitative analysis of C6-NBD-glucosylceramide was performed on a Shimadzu ultra-fast liquid chromatography coupled with API 4000 mass spectrometer. Analyst 1.5 software packages were used to control the LC-MS/MS system, as well as for data acquisition and processing.\nThe C6-NBD-glucosylceramide reading was normalized first by dividing the peak area of C6-NBD-glucosylceramide with the peak area of the internal standard, and then the amount was calculated according to the standard curve generated in the same assay run. For the cell based assay results, the amount of C6-NBD-glucosylceramide was also normalized by the protein concentration of the cell samples. […]"}, "physchem": {"assay": "physchem", "conditions": "thermodynamic from solid"}, "[3]": {"assay": "Competitive equilibration experiment (Form A + D + E slurry)", "format": "physicochemical", "conditions": "ethanol, acetone, acetonitrile at 5° C., 25° C. and 50° C., 3 days, XRPD", "description": "Competitive slurry was conducted to determine thermodynamic relationships of Crystalline Form A, Crystalline Form D and Crystalline Form E of Compound 1. […] The mixtures were stirred at 5° C., 25° C. or 50° C. for 3 days. Obtained solid part (wet cake) was investigated by XRPD."}, "[4]": {"assay": "Hygroscopicity by DVS at 25° C.", "format": "physicochemical"}, "[5]": {"assay": "Solid state stability, 1 week (HPLC purity, color, XRPD)", "conditions": "for Bulk (XRPD) / Purity, Bulk (HPLC): Solid state, 1 week; for Purity, Bulk (HPLC): initial purity 99.8%"}, "[6]": {"conditions": "50 mM acetate buffer, pH 4.5, 37 °C, pH 4.5, aqueous buffer"}, "[7]": {"conditions": "50 mM phosphate buffer, pH 6.8, 37 °C, pH 6.8, aqueous buffer"}}, "note": "Like-named read-outs stand apart in the source and are kept apart here.", "data": [{"smiles": "O=C(N[C@H](CN1CCCC1)[C@H](O)c1ccc(OC2CC2)c(Cl)c1)/C(=N/O)c1ccc2cc(Cl)ccc2c1", "note": "[Crystalline Form A of Compound 1]", "values": [{"measurement": "form stability in water activity study", "setting": "[1]", "result": "stable in a wide range of water activity"}, {"measurement": "IC50", "setting": "[2]", "result": 6.15, "unit": "nM"}, {"measurement": "solubility at 2 h", "setting": "physchem; [6]", "result": 230, "unit": "µg/mL"}, {"measurement": "solubility at 24 h", "setting": "physchem; [6]", "result": 210, "unit": "µg/mL"}, {"measurement": "solubility at 2 h", "setting": "physchem; [7]", "result": 10, "unit": "µg/mL"}, {"measurement": "solubility at 24 h", "setting": "physchem; [7]", "result": 5, "unit": "µg/mL"}, {"measurement": "solubility at 24 h", "setting": "physchem; 0.1N HCl, pH 1.2, 37 °C, pH 1.2, simulated gastric fluid", "result": 970, "unit": "µg/mL"}, {"measurement": "solubility at 2 h", "setting": "physchem; FaSSIF-V1, 37 °C, pH 6.5, fassif", "result": 30, "unit": "µg/mL"}, {"measurement": "solubility at 2 h", "setting": "physchem; FeSSIF-V1, 37 °C, pH 5, fessif", "result": 1970, "unit": "µg/mL"}, {"measurement": "solubility at 24 h", "setting": "physchem; FeSSIF-V1, 37 °C, pH 5, fessif", "result": "> 2000", "unit": "µg/mL"}, {"measurement": "solubility at 2 h", "setting": "physchem; SGF, 37 °C, pH 2, simulated gastric fluid", "result": 1160, "unit": "µg/mL"}, {"measurement": "thermodynamic stability in competitive slurry", "setting": "[3]", "result": "the most stable form"}, {"measurement": "XRPD after DVS test", "setting": "[4]", "result": "No form change"}, {"measurement": "hygroscopicity (DVS)", "setting": "[4]", "result": "slightly hygroscopic"}, {"measurement": "Desorp. (DVS)", "setting": "[4]; 0% RH", "result": 0.02, "unit": "%"}, {"measurement": "Sorp. (water uptake by DVS)", "setting": "[4]; 0% RH", "result": 0.02, "unit": "%"}, {"measurement": "Desorp. (DVS)", "setting": "[4]; 10% RH", "result": 0.04, "unit": "%"}, {"measurement": "Sorp. (water uptake by DVS)", "setting": "[4]; 10% RH", "result": 0.03, "unit": "%"}, {"measurement": "Desorp. (DVS)", "setting": "[4]; 20% RH", "result": 0.05, "unit": "%"}, {"measurement": "Sorp. (water uptake by DVS)", "setting": "[4]; 20% RH", "result": 0.04, "unit": "%"}, {"measurement": "Desorp. (DVS)", "setting": "[4]; 30% RH", "result": 0.06, "unit": "%"}, {"measurement": "Sorp. (water uptake by DVS)", "setting": "[4]; 30% RH", "result": 0.05, "unit": "%"}, {"measurement": "Desorp. (DVS)", "setting": "[4]; 40% RH", "result": 0.09, "unit": "%"}, {"measurement": "Sorp. (water uptake by DVS)", "setting": "[4]; 40% RH", "result": 0.06, "unit": "%"}, {"measurement": "Sorp. (water uptake by DVS)", "setting": "[4]; 50% RH", "result": 0.09, "unit": "%"}, {"measurement": "Sorp. (water uptake by DVS)", "setting": "[4]; 60% RH", "result": 0.12, "unit": "%"}, {"measurement": "Sorp. (water uptake by DVS)", "setting": "[4]; 70% RH", "result": 0.14, "unit": "%"}, {"measurement": "Sorp. (water uptake by DVS)", "setting": "[4]; 80% RH", "result": 0.22, "unit": "%"}, {"measurement": "Sorp. (water uptake by DVS)", "setting": "[4]; 90% RH", "result": 0.39, "unit": "%"}, {"measurement": "water uptake increased from 40% RH to 90% RH", "setting": "[4]; DVS", "result": "about 0.33%"}, {"measurement": "XRPD after DVS test", "setting": "[4]; listed as Free form Crystalline Form A of Compound 1", "result": "No form change"}, {"measurement": "XRPD after DVS test", "setting": "[4]; listed as free form Crystalline Form A of Compound 1", "result": "no form change"}, {"measurement": "chemical and physical stability", "setting": "[5]; 25° C./92% RH open container, 40° C./75% RH open container, 60° C. tight container, one week", "result": "chemically and physically stable"}, {"measurement": "Bulk (XRPD)", "setting": "[5]; 25° C./92% RH, open container", "result": "No form change"}, {"measurement": "Purity, Bulk (HPLC)", "setting": "[5]; 25° C./92% RH, open container", "result": 99.8, "unit": "%"}, {"measurement": "Bulk (XRPD)", "setting": "[5]; 40° C./75% RH, open container", "result": "No form change"}, {"measurement": "Purity, Bulk (HPLC)", "setting": "[5]; 40° C./75% RH, open container", "result": 99.8, "unit": "%"}, {"measurement": "Bulk (XRPD)", "setting": "[5]; 60° C., tight container", "result": "No form change"}, {"measurement": "Purity, Bulk (HPLC)", "setting": "[5]; 60° C., tight container", "result": 99.8, "unit": "%"}]}]}
